Measured values from article PMC7913925, “Design and Evaluation of a Polypeptide That Mimics the Integrin Binding Site for EDA Fibronectin to Block Profibrotic Cell Activity” (International Journal of Molecular Sciences, 2021).
Bridges are numbered along the chain shown (N, C = ends). Where no end group is shown, it is not given here.

Tests used:
[1] = system: integrin α4 protein (ITGA4); experiment: Western blot total protein ITGA4; format: cell-based; conditions: 48 h TGF-β1, AF38Pep or TGF-β1+AF38Pep
[2] = system: Tgfb1 mRNA in NIH/3T3 fibroblasts; experiment: qRT-PCR Tgfb1 mRNA; format: cell-based, mouse; conditions: 48 h, TGF-β1 10 ng/mL
Protocol: (§1) Reverse transcription (RT) and real-time quantitative PCR (qRT-PCR) were used to assess ACTA2/Acta2, Col1a1, Col3a1, Fn1, Eda-Fn1, Mmp9, Tgfb1, Ltbp1, Hic5, and Mrtfa mRNA expressions. Custom PCR primers were designed in-house (Table 2) and then synthesized by BGI (Beijing, China). Cells were grown in 6-well culture plates and washed with phosphate buffered saline (PBS) before lysis with TRIzon Reagent (CWBio, Beijing, China) and total RNA purification according to the manufacturer’s protocol. Reverse transcription was carried using the TransScript First-Strand cDNA Synthesis SuperMix kit according to the manufacturer’s protocol (TransGen, Beijing, China), using the random primer method for the initiation of cDNA synthesis. Nuclease-free H2O replaced the RNA sample to serve as a negative control for the reverse transcription reaction. For qRT-PCR, 10 µL 2× TransStart Top Green qPCR SuperMix was added to each well of a 96-well PCR plate containing 0.4 µL forward primer, 0.4 µL reverse primer, […], and nuclease-free water to a total volume of 20 µL. The qRT-PCR reaction was completed using a CFX96 Real-Time PCR Detection System (Bio-Rad Laboratories, Hercules, CA, USA). Amplification used the following parameters: 94 °C for 30 s, followed by 40 cycles of 94 °C for 5 s, 55 °C for 15 s, 72 °C for 10 s, and then a dissociation stage (melt-curve). […]

EDA-FN–ITGA4 interaction = experiment: Co-IP of EDA-FN with ITGA4; format: cell-based; conditions: 48 h, Co-IP with anti-ITGA4
Protocol: (§2) Total protein was extracted from cells in RIPA lysis buffer containing 1% protease inhibitor cocktail, 1% phenylmethylsulfonyl fluoride, and 1% sodium orthovanadate (Santa Cruz Biotechnology, Santa Cruz, CA, USA). Protein was quantified by Micro BCA Protein Assay Kit (Thermo Fisher Scientific) before 7.5% SDS-PAGE and transfer to nitrocellulose. Membranes were blocked with 5% bovine serum albumin (BSA; Sigma-Aldrich)/0.5% Tween-20 (Sigma-Aldrich)/PBS for 1 h, RT, followed by incubation with primary antibodies diluted in 1% BSA/0.1% Tween-20/PBS, overnight at 4 °C. Primary antibodies were: anti-phosphoY204/Y187 ERK1/2 (1:1000); anti-ERK1/2 (1:1000); anti-phosphoY861 FAK (1:1000); anti-FAK (1:2000). Immunoblotting for anti-GAPDH (1:2500) was used as a protein loading control. Following wash steps, membranes were incubated in goat anti-rabbit IgG H&L secondary antibody (horseradish peroxidase, HRP conjugate, […]) (Abcam; 1:5000 dilution, 1% BSA/0.1% Tween-20/PBS). Detection was performed using Immobilon reagent (Merck Millipore, Burlington, MA, USA) and imaged using a Tanon 5500 Chemiluminescent Imaging System (Tanon, Shanghai, China).
(§3) A volume of 25 µg total protein from cell lysate in nondenaturing lysis buffer containing protease inhibitors was immunoprecipitated (IP) using anti-ITGA4 antibodies linked to protein A/G sepharose beads (Abcam). […]

[3] = system: Hic5 mRNA in NIH/3T3 fibroblasts; experiment: qRT-PCR Hic5 mRNA; format: cell-based, mouse; conditions: 48 h, TGF-β1 10 ng/mL
Protocol: as §1

Eda-Fn1 mRNA = experiment: qRT-PCR Eda-Fn1 mRNA; format: cell-based, mouse
Protocol: as §1

osteopontin (OPN) = experiment: Western blot total protein OPN; format: cell-based; conditions: 48 h, TGF-β1+AF38Pep
[4] = system: NIH/3T3 fibroblasts, collagen gel contraction; experiment: Collagen gel contraction assay; format: cell-based, mouse; conditions: TGF-β1 10 ng/mL + AF38Pep 10 µg/mL vs TGF-β1 alone
Protocol: Approximately 2 × 10^4/mL NIH/3T3 fibroblasts were added to a solution containing 3 mg/mL rat tail collagen type I (BD Biosciences, San Diego, CA, USA), 260 mM NaHCO3, 200 mM HEPES and 50 mM NaOH. To each well of a 24-well cell culture plate, 500 µL of collagen-cell solution was added and allowed to polymerize at 37 °C for 1 h. The gels were carefully detached from the well walls before resuspension of gels in 1% FBS-DMEM and maintained at 37 °C, in a 5% CO2 atmosphere for 24 h. The DMEM medium was removed and replaced with serum-free DMEM medium with or without 10 ng/mL TGF-β1 and/or 10 µg/mL AF38Pep. Gels were photographed and measured at days 0, 1, 2, 4, and 6 after treatment. The average contraction values were obtained using ImageJ v1.37c (NIH, Bethesda, MD, USA) and are expressed as a percentage of contraction versus the initial gel diameter at 0 days.

VCAM1–ITGA4 interaction = experiment: Co-IP of VCAM1 with ITGA4; format: cell-based; conditions: 48 h, Co-IP with anti-ITGA4
Protocol: as §2, §3

[5] = system: NIH/3T3 cells, total collagen; experiment: Hydroxyproline assay, total collagen synthesis; format: cell-based, mouse; conditions: 48 h, TGF-β1 + AF38Pep; % of cells that only received TGF-β1
Protocol: Approximately 4 × 10^6 of TGF-β1- and/or AF38Pep-treated NIH/3T3 fibroblast cells were harvested and homogenized in 1:1 conditioned medium to HCl (10N), before incubation at 120 °C for 24 h or until complete sample hydrolyzation. Cell-associated and soluble collagen contents were assessed using the Chondrex Hydroxyproline Assay kit (Chondrex, Redmond, WA, USA) according to the manufacturer’s protocol. In brief, 10 µL of sample, standard or blank control solution was added in duplicate to a 96-well clear-bottomed absorbance plate. Next, 100 µL of 1× chloramine-T solution was added to the wells and incubated at room temperature (RT) for 20 min. After incubation, 100 µL 1× DMAB solution was added to the wells and incubated at 60 °C for 30 min, with mild agitation at 5 min intervals. The plate O.D. values were read at 540 nm and sample values were compared to the values of the standard curve. The total collagen content was determined using the following equation:Collagen level (µg/mL) = Hydroxyproline level (µg/mL) × (100/13.5)

VMPYISTTPAKPCTSENCGNSWYGGFKSKNENKIYFIN (disulfide 13-18 (inferred)) [AF38Pep]
ITGA4 total protein [1]: remained unaffected
TGF-β1 mRNA expression [2]: attenuated
EDA-FN–ITGA4 interaction (EDA-FN–ITGA4 interaction): specifically inhibited EDA-FN–ITGA4 interactions
HIC5 mRNA expression [3]: attenuated
EDA-FN splice variant mRNA expression (Eda-Fn1 mRNA; 72 h, TGF-β1 + AF38Pep): all inhibited
EDA-FN splice variant mRNA expression (Eda-Fn1 mRNA; by 48 h, vs TGF-β1-only): significant attenuation
OPN protein expression (osteopontin (OPN)): significantly attenuated
collagen gel contraction ([4]; 96 h): significantly delayed collagen gel contraction
collagen gel contraction ([4]; 144 h): maintained a significant difference in contraction
VCAM1–ITGA4 binding (VCAM1–ITGA4 interaction): unaffected by cell treatments and remained at basal levels
total collagen synthesis relative to TGF-β1 only [5]: approximately 60%
